Details: Liquid, Vibrating tube method

CCCCn1cc[n+](C)c1.CCCCn1cc[n+](C)c1.[Co+2].[N-]=C=S.[N-]=C=S.[N-]=C=S.[N-]=C=S [bis(1-butyl-3-methylimidazolium) tetrathiocyanatocobaltate]
mass density [kg/m3]
Details | 283.16 K | 293.13 K | 303.17 K | 313.17 K | 323.18 K | 333.15 K | 343.14 K | 353.13 K | 363.14 K
100 kPa | 1233.1 | 1226.4 | 1219.6 | 1212.6 | 1205.8 | 1199 | 1192.4 | 1185.8 | 1179.2
1000 kPa | 1233.5 | 1226.9 | 1220.1 | 1213.2 | 1206.3 | 1199.5 | 1192.9 | 1186.3 | 1179.8
2000 kPa | 1233.9 | 1227.4 | 1220.5 | 1213.6 | 1206.8 | 1200.1 | 1193.5 | 1186.9 | 1180.3
5000 kPa | 1235.3 | 1228.9 | 1222.1 | 1215.2 | 1208.3 | 1201.8 | 1195.1 | 1188.6 | 1182
7000 kPa | 1236.2 | 1229.7 | 1222.9 | 1216.2 | 1209.4 | 1202.7 | 1196.2 | 1189.6 | 1183.2
10000 kPa | 1237.6 | 1231.1 | 1224.3 | 1217.7 | 1210.8 | 1204.2 | 1197.7 | 1191.2 | 1184.8
15000 kPa | 1239.8 | 1233.5 | 1226.8 | 1220.1 | 1213.3 | 1206.7 | 1200.4 | 1193.8 | 1187.5
20000 kPa | 1241.9 | 1235.6 | 1229.1 | 1222.5 | 1215.8 | 1209.2 | 1202.8 | 1196.5 | 1190
25000 kPa | 1244 | 1237.6 | 1231.3 | 1224.8 | 1218.1 | 1211.6 | 1205.1 | 1198.9 | 1192.6
30000 kPa | 1245.9 | 1239.7 | 1233.5 | 1226.9 | 1220.5 | 1213.9 | 1207.5 | 1201.3 | 1195
35000 kPa | 1248 | 1241.8 | 1235.6 | 1229.1 | 1222.8 | 1216.2 | 1209.8 | 1203.6 | 1197.4
40000 kPa | 1250.1 | 1243.8 | 1237.7 | 1231.3 | 1224.9 | 1218.3 | 1212.2 | 1205.9 | 1199.9
45000 kPa | 1251.9 | 1245.9 | 1239.7 | 1233.3 | 1227 | 1220.5 | 1214.4 | 1208.1 | 1202.2
50000 kPa | 1253.9 | 1248 | 1241.7 | 1235.3 | 1229.1 | 1222.8 | 1216.4 | 1210.5 | 1204.5
55000 kPa | 1255.8 | 1250 | 1243.6 | 1237.4 | 1231.1 | 1224.9 | 1218.6 | 1212.8 | 1206.7
60000 kPa | 1257.6 | 1251.9 | 1245.6 | 1239.4 | 1233.2 | 1227 | 1220.7 | 1215.1 | 1208.9
65000 kPa | 1259.4 | 1253.8 | 1247.5 | 1241.3 | 1235.1 | 1229.1 | 1222.9 | 1216.9 | 1211.2
70000 kPa | 1261.3 | 1255.5 | 1249.4 | 1243.4 | 1237.2 | 1231 | 1225 | 1219 | 1213.2
75000 kPa | 1263.2 | 1257.4 | 1251.3 | 1245.2 | 1239.2 | 1233 | 1227 | 1221.1 | 1215.3
80000 kPa | 1264.9 | 1259.1 | 1253.1 | 1247 | 1241 | 1235.1 | 1229.1 | 1223.1 | 1217.3
85000 kPa | 1266.6 | 1261 | 1254.8 | 1248.9 | 1242.9 | 1236.9 | 1231 | 1225.2 | 1219.3
90000 kPa | 1268.4 | 1262.6 | 1256.7 | 1250.6 | 1244.8 | 1238.9 | 1232.8 | 1227.1 | 1221.4
95000 kPa | 1270.1 | 1264.4 | 1258.5 | 1252.5 | 1246.5 | 1240.7 | 1234.8 | 1229.1 | 1223.3
